Results reported in patent publication US20040171688A1, “Carboxylic acids and derivatives thereof and pharmaceutical compositions containing them” (priority 1997, published 2004).

Experiments:
HNF-4α [1] = target: T1, HNF-4α (Rattus norvegicus, UniProt P22449); assay: Transfection assay: COS-7 cells cotransfected with (C3P)3-TK-CAT reporter and pSG5-HNF-4α; assay type: cell-based; set-up: expressed in transfected cells; host or cells: COS-7; details: free fatty acids added to culture medium of COS-7 cells (FIG. 4a)
T1 sequence (P22449 1-464 isoform P22449-2): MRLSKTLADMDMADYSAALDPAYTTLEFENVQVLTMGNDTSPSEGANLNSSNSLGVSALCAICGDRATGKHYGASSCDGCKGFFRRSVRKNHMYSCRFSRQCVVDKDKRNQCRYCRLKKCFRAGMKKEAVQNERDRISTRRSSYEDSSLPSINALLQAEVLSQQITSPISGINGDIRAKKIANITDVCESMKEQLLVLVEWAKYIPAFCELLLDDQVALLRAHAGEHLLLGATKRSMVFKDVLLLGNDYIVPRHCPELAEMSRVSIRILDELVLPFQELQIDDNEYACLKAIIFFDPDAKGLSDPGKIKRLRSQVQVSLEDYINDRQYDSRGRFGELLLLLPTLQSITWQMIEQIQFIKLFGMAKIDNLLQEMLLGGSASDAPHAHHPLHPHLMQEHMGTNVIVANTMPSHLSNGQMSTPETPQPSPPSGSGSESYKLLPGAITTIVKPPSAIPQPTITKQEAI
Description: a. […] Fold induction of CAT activity by transfected HNF-4I is determined by evaluating CAT activity in the presence of pSG5-HNF-4I as compared with pSG5 plasmid and as function of respective fatty acids added to the culture medium as indicated. The figure summarizes 3-4 independent experiments for each fatty acid. Mean ± S.E.
b. […] Fold induction refers to CAT activity in cells incubated with 3,3,12,12-tetramethyl-tetradecanedioic acid (∘), 3,3,14,14-tetramethyl-hexadecanedioic acid (□) and 3,3,16,16-tetramethyl-octadecanedioic acid (Δ) proligands normalized to the activity in cells incubated in the absence of added proligands.
COS-7 cells cotransfected for 6 h with the (C3P)3-TK-CAT reporter plasmid (5 μg) and with either the pSG5-HNF-4α expression plasmid ([…]) or the pSG5 plasmid (0.025 μg) added by calcium phosphate precipitation were cultured in serum free medium with fatty acids (complexed with albumin in a molar ratio of 6:1) added as indicated. β-Galactosidase expression vector pRSGAL (1 μg) added to each precipitate served as an internal control for transfection. The (C3P)3-TK-CAT construct was prepared by inserting a synthetic oligonucleotide encompassing the (−87/−66) Apo CIII promoter sequence (5′-[…]-3′) flanked by HindIII restriction site into pBLCAT2^47 upstream of the −105 bp thymidine kinase promoter. The construct containing three copies of the synthetic oligonucleotide in the direct orientation was selected and confirmed by sequencing.
The intracellular effect of HNF-4α ligands on HNF-4α mediated transcription was evaluated in COS-7 cells cotransfected with an expression vector for HNF-4α and with a CAT reporter plasmid driven by a thymidine kinase promoter and enhanced by one to three C3P copies of the apo CIII gene promoter. Transfected cells were incubated in the presence of free fatty acids and xenobiotic amphipathic carboxylates representing agonistic or antagonistic HNF-4α proligands.

[2] = dietary fatty acid; cited from earlier work
[3] = dietary fatty acid; cited from earlier work; remark: listed apart in the source
HNF-4α [4] = target: T1, HNF-4α; assay: In vitro transcription assay induced by His-HNF-4α with HeLa nuclear extract; assay type: biochemical; set-up: The full length HNF-4α1 cDNA cloned into 6His-pET11d vector was expressed in E.coli BL21 (DE3)plysS; 6His; made in house; host or cells: E. coli BL21 (DE3)plysS
Description: a. Representative experiments showing in vitro transcription of the test template in the presence of increasing concentrations of His-HNF-4I and in the absence (lanes 1-3, 7-9) or presence of 10 μM of added palmitoyl(16:0)-CoA (lanes 4-6) or stearoyl(18:0)-CoA (lanes 10,11) as indicated. Correctly initiated transcripts of the test and control templates are denoted by (→) and ? , respectively.
b. HNF-4I-induced in vitro transcription in the absence (empty bars) or presence of 10 μM each of added palmitoyl(16:0)-CoA (filled bars) or stearoyl(18:0)-CoA (hatched bars). Fold transcription indicates the ratio of specific transcript produced by the test template over transcript from the control template normalized to the ratio observed without HNF-4a. The figure summarizes 5 independent experiments for each acyl-CoA. *-Significant as compared with the respective value in the absence of added ligand.
Reaction mixture contained 20 mM Hepes-KOH (pH 7.9), 5 mM MgCl2, 60 mM KCl, 8% glycerol, 2 mM DTT, 1 mM 3′-O-methyl-GTP, 10 units of T1RNase, 20 units of RNasin, 0.5 μg sonicated salmon sperm DNA and His-HNF-4α and test ligand as indicated. The mixture was preincubated for 30 min at 22° C. followed by adding 10 ng of pAdML200 control template consisting of the adenovirus major-late promoter (−400/+10) linked to a 200 bp G-less cassette and 200 ng of the test template consisting of three C3P copies of the apo CIII promoter sequence (−87/−66) upstream to a synthetic ovalbumin TATA box promoter in front of a 377 bp-G-less cassette. The mixture was further preincubated for 10 min at 22° C. followed by adding 40 μg of HeLa nuclear extract with additional preincubation for 30 min at 30° C. 0.5-mM ATP, 0.5 mM CTP, 25 μM UTP, and 10 μCi of [α-^32P]UTP (s.a. […], Amersham) were then added and the complete reaction mixture was incubated for 45 min at 30° C. in a final volume of 25 μl. The reaction was terminated by adding 175 μl of stop mix (0.1 M sodium acetate (pH 5.2), 10 mM EDTA, 0.1% SDS, 200 μg/ml tRNA) followed by phenol extraction and ethanol precipitation. RNA was resuspended in sample buffer containing 80% formamide and 10 mM Tris-HCl (pH 7.4) and separated on 5% polyacrylamide gel containing 7 M urea in TBE. Correctly initiated transcripts were quantitated by PhosphorImager analysis. The test DNA template was constructed by inserting into pC2AT19 plasmid a PCR-amplified oligonucleotide prepared by using the (C3P)3-TK-CAT plasmid as template and consisting of three copies of the C3P element of the Apo CIII promoter sequence (−87/−66) having an ECoRI and SSTI sites at the 5′ and 3′ ends, respectively. The resultant plasmid was cleaved with sphI and sacI and ligated to a synthetic oligonucleotide (5′-CGAGGTCCAC-[…]-3′) containing sequences of the HSV thymidine kinase promoter (−41/−29) and of the chicken ovalbumin promoter (−33/−21).
The effect of agonistic and antagonistic HNF-4α-ligands was further evaluated by analyzing the in vitro transcription rate, catalyzed by added HeLa nuclear extract and induced by recombinant HNF-4α, of a test template consisting of a 377 bp G-less cassette promoted by sequences of the HSV thymidine kinase and chicken ovalbumin promoters and enhanced by three C3P copies of the apo Clil gene promoter. Transcriptional activation by HNF-4α was evaluated in the presence and in the absence of added representative long chain fatty acyl-CoAs. […]

HNF-4α [5] = target: T2, HNF-4α (Rattus norvegicus, UniProt P22449); assay: Ligand binding assay with [3H]palmitoyl(16:0)-CoA on recombinant GST-HNF-4α(LBD) or His-HNF-4α
T2 construct: GST-HNF-4α(LBD) fusion protein consisting of amino acids 96-455 of wild type HNF-4α fused to GST; fused on or other part: Glutathione-S-transferase (GST) at the N-terminus of the LBD construct; 6-histidine tag on the full-length construct
T2 sequence (P22449 105-464 isoform P22449-2 limits assumed): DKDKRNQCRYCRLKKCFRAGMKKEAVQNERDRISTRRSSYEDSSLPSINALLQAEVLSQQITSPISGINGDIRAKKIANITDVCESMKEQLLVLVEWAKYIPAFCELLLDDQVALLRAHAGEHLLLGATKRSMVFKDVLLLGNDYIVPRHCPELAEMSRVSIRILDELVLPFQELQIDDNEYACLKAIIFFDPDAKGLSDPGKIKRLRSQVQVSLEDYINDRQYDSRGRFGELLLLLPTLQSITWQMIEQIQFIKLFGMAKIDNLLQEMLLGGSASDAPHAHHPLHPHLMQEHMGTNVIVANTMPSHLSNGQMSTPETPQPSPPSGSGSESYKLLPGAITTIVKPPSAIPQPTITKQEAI
Description: a. […] The respective recombinant proteins are incubated to equilibrium with [^3H]palmitoyl(16:0)-CoA (0.05 μCi) and with increasing nonlabeled palmitoyl(16:0)-CoA as indicated.
b. […] The respective recombinant proteins are incubated with 8 nM of [^3H]palmitoyl(16:0)-CoA (60 Ci/mmol) and with increasing nonlabeled myristoyl(14:0)-CoA as indicated. Percent bound refers to radiolabeled [^3H]palmitoyl(16:0)-CoA in the bound fraction. […] Percent bound refers to radiolabeled [^3H]palmitoyl(16:0)-CoA in the bound fraction.
Rat HNF-4α1 cDNA(pLEN4S)^1 was subcloned into the glutathione-S-transferase (GST) encoding pGEX-2T plasmid (Pharmacia) and the resultant plasmid was cleaved with smaI and AccI and religated to yield the GST-HNF-4α(LBD) fusion plasmid. […] The full length HNF-4α1 cDNA cloned into 6His-pET11d vector was expressed in E.coli BL21 (DE3)plysS.
Recombinant GST-HNF-4α(LBD) (100 pmol) or His-HNF-4α (100 pmol) were incubated for 60 min at 22° C. with [^3H]palmitoyl(16:0)-CoA (American RadiolabeledChemicals) in 100 μl of 10 mM phosphate buffer (pH 7.4). Competitor ligands or solvent carrier were added as indicated. Free and HNF-4α bound ^3[H]palmitoyl(16:0)-CoA were separated by […] and bound ligand was quantified by liquid scintillation counting. Nonspecific binding of [^3H]palmitoyl(16:0)-CoA was determined by its binding to the GST moiety or to carbonic anhydrase as nonrelevant protein.
Binding was exemplified with either the ligand binding domain of HNF-4α fused to glutathione-s-transferase (GST-HNF-4α(LBD)) or the full length HNF-4α protein tagged by 6 histidines (His-HNF-4α).

| SMILES | effect on HNF-4α dependent transcription (CAT activity) (HNF-4α [1]) | factor VII content and blood coagulability [2] | blood lipids [3] | effect on HNF-4α induced in vitro transcription (HNF-4α [4]; 10 μM added acyl-CoA (FIG. 3)) | HNF-4α transcriptional activity, agonist/antagonist character (summary) (HNF-4α [4]; summary statement of Example 4) | maximal binding (HNF-4α [5]; Scatchard analysis) | binding ratio at saturation (HNF-4α [5]; at saturation (FIG. 1A)) | EC50 (HNF-4α [5]; competition with 8 nM [3H]palmitoyl(16:0)-CoA, GST-HNF-4α(LBD) or His-HNF-4α, read-out: EC50 (50% specific competition)) [nM] | Kd (HNF-4α [5]; saturation binding of [3H]palmitoyl(16:0)-CoA, Scatchard analysis, GST-HNF-4α(LBD) or His-HNF-4α, read-out: dissociation constant (Kd)) [nM] | plasma VLDL-, LDL- and HDL-cholesterol [3] |
| --- | --- | --- | --- | --- | --- | --- | --- | --- | --- | --- |
| CCCCCCCCCCCCCCCCCC(=O)O [stearic(18:0), stearic(18:0) acid] | suppressive | decrease | lowering | – | – | – | – | – | – | – |
| CCCCCCCCCCCCCCCC(=O)SCCNC(=O)CCNC(=O)[C@H](O)C(C)(C)COP(=O)(O)OP(=O)(O)OC[C@H]1O[C@@H](n2cnc3c(N)ncnc32)[C@H](O)[C@@H]1OP(=O)(O)O [Palmitoyl(16:0)-CoA, reference compound] | – | – | – | activated | activators | 1 mol palmitoyl(16:0)-CoA/mol HNF-4I | ~1 mole of fatty acyl-CoA/mole of HNF-4α | 2600 | 2600 | – |
| CCCCCCCCCCCCCC(=O)O [myristic(14:0), myristic(14:0) acid] | dose dependent activation | – | – | – | – | – | – | – | – | increase |
